Results as given in ChEMBL document CHEMBL1909046, “DrugMatrix in vitro pharmacology data”.

Key:
[1] = DRUGMATRIX: ATPase, Na+/K+ enzyme inhibition (substrate: ATP); format: tissue-based, Sus scrofa, Heart; details: Not Active = under 50% inhibition at 10 µM
[2] = DRUGMATRIX: Atrial Natriuretic Factor (ANF) radioligand binding (ligand: [125I] ANF (rat)); format: cell membranes, Cavia porcellus, Dunkin-Hartley, Adrenal gland, Membrane; details: Not Active = under 50% inhibition at 10 µM
[3] = DRUGMATRIX: Tumor Necrosis Factor (TNF), Non-Selective radioligand binding (ligand: [125I] TNF-alpha); format: cell membranes, Membrane; details: u-937; Not Active = under 50% inhibition at 10 µM
[4] = DRUGMATRIX: Nicotinic Acetylcholine radioligand binding (ligand: [125I] Epibatidine); format: cell membranes, Membrane; details: imr-32; Not Active = under 50% inhibition at 10 µM
Nitric oxide synthase 1 = Nitric oxide synthase 1 (Rattus norvegicus, UniProt P29476); format: tissue-based, Cerebellum; also: in other assays of this panel Not Active means under 50% inhibition at 10 µM
[5] = target: T1, Nitric oxide synthase, inducible (Mus musculus, UniProt P29477); set-up: species or system Escherichia coli;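 also: inhibition of iNOS enzyme activity measured with L-arginine as substrate; in other assays of this panel Not Active means under 50% inhibition at 10 µM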
T1 sequence (P29477 whole entry): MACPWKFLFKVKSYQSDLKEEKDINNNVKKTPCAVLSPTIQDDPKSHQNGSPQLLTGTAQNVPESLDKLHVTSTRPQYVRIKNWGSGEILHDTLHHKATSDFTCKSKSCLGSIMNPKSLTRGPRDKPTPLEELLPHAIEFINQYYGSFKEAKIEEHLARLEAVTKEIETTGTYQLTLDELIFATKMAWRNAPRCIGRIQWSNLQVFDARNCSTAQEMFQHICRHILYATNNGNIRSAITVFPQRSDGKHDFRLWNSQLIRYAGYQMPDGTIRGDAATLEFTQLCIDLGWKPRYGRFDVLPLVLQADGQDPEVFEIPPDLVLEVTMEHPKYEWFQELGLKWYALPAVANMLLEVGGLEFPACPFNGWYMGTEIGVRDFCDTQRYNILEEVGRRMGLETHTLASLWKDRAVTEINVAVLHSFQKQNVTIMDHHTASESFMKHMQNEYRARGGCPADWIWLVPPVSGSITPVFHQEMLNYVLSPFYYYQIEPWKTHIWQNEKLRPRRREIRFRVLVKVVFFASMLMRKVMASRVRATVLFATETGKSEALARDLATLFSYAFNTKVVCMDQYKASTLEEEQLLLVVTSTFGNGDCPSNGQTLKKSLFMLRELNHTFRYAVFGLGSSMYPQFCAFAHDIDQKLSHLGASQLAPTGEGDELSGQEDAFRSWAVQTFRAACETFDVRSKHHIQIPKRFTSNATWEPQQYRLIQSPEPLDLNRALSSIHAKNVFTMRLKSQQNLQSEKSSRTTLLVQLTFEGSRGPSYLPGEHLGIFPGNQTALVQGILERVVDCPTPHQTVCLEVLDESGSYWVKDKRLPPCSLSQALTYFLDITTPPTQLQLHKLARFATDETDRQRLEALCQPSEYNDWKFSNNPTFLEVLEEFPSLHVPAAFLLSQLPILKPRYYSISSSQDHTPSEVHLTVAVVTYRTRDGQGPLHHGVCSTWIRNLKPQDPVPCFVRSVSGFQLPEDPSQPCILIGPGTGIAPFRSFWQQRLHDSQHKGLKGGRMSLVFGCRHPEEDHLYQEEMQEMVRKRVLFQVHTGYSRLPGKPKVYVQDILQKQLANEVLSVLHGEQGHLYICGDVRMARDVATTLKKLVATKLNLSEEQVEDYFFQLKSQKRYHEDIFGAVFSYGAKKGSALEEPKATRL

Neutrophil elastase = target: T2, Neutrophil elastase (Homo sapiens, UniProt P08246); format: tissue-based;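 also: inhibition of neutrophil elastase enzyme activity, measured with a p-nitroanilide-linked peptide substrate; in other assays of this panel Not Active means under 50% inhibition at 10 µM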
T2 sequence (P08246 whole entry): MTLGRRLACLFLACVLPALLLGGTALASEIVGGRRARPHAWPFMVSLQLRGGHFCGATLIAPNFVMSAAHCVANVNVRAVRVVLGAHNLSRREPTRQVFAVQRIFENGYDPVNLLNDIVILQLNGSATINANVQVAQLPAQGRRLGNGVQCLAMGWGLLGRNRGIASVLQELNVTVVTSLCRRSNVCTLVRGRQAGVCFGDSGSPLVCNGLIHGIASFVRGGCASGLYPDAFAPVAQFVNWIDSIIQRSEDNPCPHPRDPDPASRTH

Interstitial collagenase = target: T3, Interstitial collagenase (Homo sapiens, UniProt P03956); format: tissue-based, Rheumatoid synovial fibroblasts;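 also: MMP-1 enzyme inhibition assay using a peptide substrate; in other assays of this panel Not Active means under 50% inhibition at 10 µM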
T3 sequence (P03956 whole entry): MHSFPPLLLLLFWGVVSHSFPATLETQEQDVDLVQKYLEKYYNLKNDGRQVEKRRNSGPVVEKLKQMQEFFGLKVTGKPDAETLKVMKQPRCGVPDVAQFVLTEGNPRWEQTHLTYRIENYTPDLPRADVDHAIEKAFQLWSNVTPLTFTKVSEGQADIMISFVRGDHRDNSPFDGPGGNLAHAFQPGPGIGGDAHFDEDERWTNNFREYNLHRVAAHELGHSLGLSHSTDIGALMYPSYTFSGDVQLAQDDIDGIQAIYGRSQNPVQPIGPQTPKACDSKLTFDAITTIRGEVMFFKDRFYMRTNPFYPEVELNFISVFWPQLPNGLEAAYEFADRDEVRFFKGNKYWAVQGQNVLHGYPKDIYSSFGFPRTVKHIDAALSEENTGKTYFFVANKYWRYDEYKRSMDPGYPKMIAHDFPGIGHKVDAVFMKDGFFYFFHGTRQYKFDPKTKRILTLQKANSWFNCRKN

Adenosine receptor A1 = target: T4, Adenosine receptor A1 (Homo sapiens, UniProt P30542); format: cell membranes, CHO, Membrane
T4 sequence (P30542 whole entry): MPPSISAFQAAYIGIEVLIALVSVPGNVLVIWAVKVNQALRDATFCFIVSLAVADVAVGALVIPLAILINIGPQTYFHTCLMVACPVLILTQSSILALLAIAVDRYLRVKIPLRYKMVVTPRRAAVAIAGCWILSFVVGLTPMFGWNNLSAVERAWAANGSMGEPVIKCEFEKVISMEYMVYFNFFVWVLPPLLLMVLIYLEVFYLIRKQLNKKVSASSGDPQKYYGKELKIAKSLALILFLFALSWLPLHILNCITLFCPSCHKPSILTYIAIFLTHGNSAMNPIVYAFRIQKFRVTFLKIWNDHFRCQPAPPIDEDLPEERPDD

Nitric oxide synthase 1, sequence (P29476 whole entry): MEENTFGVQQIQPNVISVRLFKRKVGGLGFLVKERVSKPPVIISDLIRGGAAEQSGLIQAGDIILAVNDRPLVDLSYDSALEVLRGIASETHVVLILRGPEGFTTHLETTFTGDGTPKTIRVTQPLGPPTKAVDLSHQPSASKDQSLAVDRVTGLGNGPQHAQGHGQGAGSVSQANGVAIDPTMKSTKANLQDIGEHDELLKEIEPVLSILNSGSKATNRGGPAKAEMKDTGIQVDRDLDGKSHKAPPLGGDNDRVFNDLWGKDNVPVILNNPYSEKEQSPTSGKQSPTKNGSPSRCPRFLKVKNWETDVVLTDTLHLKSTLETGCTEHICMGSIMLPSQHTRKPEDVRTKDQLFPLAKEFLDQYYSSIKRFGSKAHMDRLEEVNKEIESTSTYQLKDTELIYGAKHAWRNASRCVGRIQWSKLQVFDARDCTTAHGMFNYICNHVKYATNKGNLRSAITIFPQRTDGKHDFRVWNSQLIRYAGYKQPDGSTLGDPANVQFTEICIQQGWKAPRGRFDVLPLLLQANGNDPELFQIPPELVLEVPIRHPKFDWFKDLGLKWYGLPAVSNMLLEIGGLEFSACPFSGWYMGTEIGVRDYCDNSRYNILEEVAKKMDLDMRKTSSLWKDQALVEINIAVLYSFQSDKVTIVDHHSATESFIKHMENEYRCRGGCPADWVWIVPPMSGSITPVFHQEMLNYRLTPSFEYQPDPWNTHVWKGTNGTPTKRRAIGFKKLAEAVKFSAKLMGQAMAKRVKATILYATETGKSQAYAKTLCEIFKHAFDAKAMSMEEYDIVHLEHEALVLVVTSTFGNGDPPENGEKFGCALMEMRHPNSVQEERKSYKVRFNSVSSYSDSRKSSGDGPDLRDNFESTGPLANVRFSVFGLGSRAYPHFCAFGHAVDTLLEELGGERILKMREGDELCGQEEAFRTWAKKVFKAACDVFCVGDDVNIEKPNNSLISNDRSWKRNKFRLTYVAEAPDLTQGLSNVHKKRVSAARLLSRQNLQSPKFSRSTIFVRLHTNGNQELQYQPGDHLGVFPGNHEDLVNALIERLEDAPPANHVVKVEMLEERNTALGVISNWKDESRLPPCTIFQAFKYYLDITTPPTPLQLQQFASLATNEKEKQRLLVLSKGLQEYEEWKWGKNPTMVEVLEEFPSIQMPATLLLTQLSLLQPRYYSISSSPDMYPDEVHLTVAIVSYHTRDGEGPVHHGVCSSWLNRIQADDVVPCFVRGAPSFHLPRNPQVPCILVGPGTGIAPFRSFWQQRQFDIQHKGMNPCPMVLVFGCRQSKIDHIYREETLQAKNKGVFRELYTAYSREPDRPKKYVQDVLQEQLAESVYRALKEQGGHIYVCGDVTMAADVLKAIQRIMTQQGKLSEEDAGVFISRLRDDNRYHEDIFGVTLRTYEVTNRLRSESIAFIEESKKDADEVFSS

Row | Compound | IC50 [1] | Ki [1] | IC50 [2] | Ki [2] | IC50 [3] | Ki [3] | IC50 [4] | Ki [4] | IC50 (Nitric oxide synthase 1) | IC50 [5] | IC50 (Neutrophil elastase) | IC50 (Interstitial collagenase) | IC50 (Adenosine receptor A1; cho) | IC50 (Adenosine receptor A1; read-out: IC50) | Ki (Adenosine receptor A1; read-out: Ki)
1 | NCC1(CC(=O)O)CCCCC1 [GABAPENTIN] | Not Active | Not Active | Not Active | Not Active | Not Active | Not Active | Not Active | Not Active | Not Active | Not Active | Not Active | Not Active | Not Active |  | 
2 | O=c1cc(-c2ccccc2)oc2c1ccc1ccccc12 [ALPHA-NAPHTHOFLAVONE] | Not Active | Not Active | Not Active | Not Active | Not Active | Not Active | Not Active | Not Active | Not Active | Not Active | Not Active | Not Active |  | 1130 nM | 661 nM
3 | COc1c(N2CCNC(C)C2)c(F)cc2c(=O)c(C(=O)O)cn(C3CC3)c12 (configuration not stated) [GATIFLOXACIN] | Not Active | Not Active | Not Active | Not Active | Not Active | Not Active | Not Active | Not Active | Not Active | Not Active | Not Active | Not Active | Not Active |  | 
4 | CC1=Nc2ccc(Cl)cc2S(=O)(=O)N1 [DIAZOXIDE] | Not Active | Not Active | Not Active | Not Active | Not Active | Not Active | Not Active | Not Active | Not Active | Not Active | Not Active | Not Active | Not Active |  | 
5 | COC(=O)[C@H](c1ccccc1Cl)N1CCc2sccc2C1 [CLOPIDOGREL] | Not Active | Not Active | Not Active | Not Active | Not Active | Not Active | Not Active | Not Active | Not Active | Not Active | Not Active | Not Active | Not Active |  | 
6 | CN(C)CCCC1(c2ccc(F)cc2)OCc2cc(C#N)ccc21 (configuration not stated) [CITALOPRAM] | Not Active | Not Active | Not Active | Not Active | Not Active | Not Active | Not Active | Not Active | Not Active | Not Active | Not Active | Not Active | Not Active |  | 
7 | COc1ccc2c(c1)c(CC(=O)OCC(=O)O)c(C)n2C(=O)c1ccc(Cl)cc1 [ACEMETACIN] | Not Active | Not Active | Not Active | Not Active | Not Active | Not Active | Not Active | Not Active | Not Active | Not Active | Not Active | Not Active | Not Active |  | 
8 | CC(C)(S)[C@@H](N)C(=O)O [PENICILLAMINE] | Not Active | Not Active | Not Active | Not Active | Not Active | Not Active | Not Active | Not Active | Not Active | Not Active | Not Active | Not Active | Not Active |  | 
9 | CC1COc2c(N3CCN(C)CC3)c(F)cc3c(=O)c(C(=O)O)cn1c23 (configuration not stated) [OFLOXACIN] | Not Active | Not Active | Not Active | Not Active | Not Active | Not Active | Not Active | Not Active | Not Active | Not Active | Not Active | Not Active | Not Active |  | 
10 | Cc1[nH]cnc1CN1CCc2c(c3ccccc3n2C)C1=O [ALOSETRON] | Not Active | Not Active | Not Active | Not Active | Not Active | Not Active | Not Active | Not Active | Not Active | Not Active | Not Active | Not Active | Not Active |  | 
11 | COc1ccc(CN(CCN(C)C)c2ccccn2)cc1 [PYRILAMINE] | Not Active | Not Active | Not Active | Not Active | Not Active | Not Active | Not Active | Not Active | Not Active | Not Active | Not Active | Not Active | Not Active |  | 
12 | NS(=O)(=O)c1cc2c(cc1Cl)NCNS2(=O)=O [HYDROCHLOROTHIAZIDE] | Not Active | Not Active | Not Active | Not Active | Not Active | Not Active | Not Active | Not Active | Not Active | Not Active | Not Active | Not Active | Not Active |  | 
